Data taken from article PMC8623418, “Novel Multitarget Hydroxamic Acids with a Natural Origin CAP Group against Alzheimer’s Disease: Synthesis, Docking and Biological Evaluation” (Pharmaceutics, 2021).

What was measured:
[1] = DPPH test of antiradical activity; conditions: substances at 100 μM, mean ± SEM
Experimental: The DPPH test was used to examine antiradical activity based on the ability of a stable chromogen radical of 2,2-diphenyl-1-picrylhydrazyl (DPPH) to remove a hydrogen atom, which is accompanied by a change in the absorption maximum in the electronic absorption spectra. The amount of reduced DPPH was measured using a Cytation ™ 3 multifunctional plate analyzer (BioTek Instruments, Inc., Winooski, VT, USA) at a wavelength of 517 nm.
The antiradical activity of the test compounds was evaluated by the DPPH test, based on the ability of antioxidants to donate an electron to the stable chromogen radical DPPH, converting it into a nonradical form and neutralizing its activity. […] The chromogenic free radical DPPH used in this test has a large size, and substances even with a similar chemical structure may have different antiradical properties due to spatially difficult access.

[2] = system: T1, β-amyloid 1–42; test: β-amyloid 1–42 aggregation, Thioflavin T fluorescence; assay type: biochemical; conditions: 100 μM, 72 h incubation
T1 construct: fragments Aβ1–40 and Aβ1–42
Experimental: The effect of the studied compounds on the aggregation of β-amyloid (1–40/1–42) was analyzed using the method of recording Thioflavin T fluorescence (10 µM) for 72 h at 37 °C. The fluorescence signal was measured using a multifunctional flatbed analyzer, the Cytation ™ 3 (BioTek Instruments, Inc., Winooski, VT, USA), at λex = 450 nm, λem = 480 nm.
The effect of hydroxamic acids on the stage of aggregation of the pathological β-amyloid peptide was investigated for 72 h using two model systems—fragments Aβ1–40 and Aβ1–42. The fluorophore Thioflavin T was used as an indicator of the ongoing fibrillation process, the interaction of which with proteins in the state of amyloid fibrils leads to an increase in the fluorescence signal.

[3] = system: 5xFAD transgenic mice; test: Novel Object Recognition Test in 5xFAD mice; assay type: in vivo; conditions: 15 mg/kg i.p. for 20 days, testing trial 24 h after familiarization
Experimental: All animal procedures were approved by the Animal Care and Use Committee of IPAC RAS. For in vivo studies, 11-month-old male mice of the 5xFAD line (Tg(APPSwFlLon,PSEN1*M146L*L286V) 6799Vas/J) were used. The animals were housed in cages with free access to water and food in a room with a 12 h/12 h light–dark cycle, at a temperature of 23 ± 1 °C and humidity of 50 ± 5%. Before the series of experiments, animals were randomly divided into four groups (n = 8 per group): (1) wild-type group (C57BL6/j mouse line); (2) 5xFAD group; (3) 5xFAD + 15 group; and (4) 5xFAD + 25 group.
Both compounds 15 and 25 were dissolved in saline solution and DMSO (10%) immediately before use and intraperitoneally administered to animals for 20 days at a dose of 15 mg/kg body weight for experiments. In the control group, the vehicle solution (saline and DMSO (10%), intraperitoneal) was administered with the same time schedule.
The Novel Object Recognition Test assesses a mouse’s ability to remember if it has previously encountered an object or not. The same box that had been used in the open field test was used for the Novel Object Recognition Test. Mice were habituated to the box one day before the test, during the open field test. […] All trials were videotaped and analyzed with a computer-operated EthoVision XT system (Noldus, Wageningen, the Netherlands). […]

[4] = system: 5xFAD transgenic mice; test: Ex vivo Congo red staining of Aβ plaques in brain sections; conditions: compared to untreated 5XFAD mice
Experimental: For histological examination, the mouse brain was fixed in 10% neutral buffered formalin (Leica Biosystems Inc., Buffalo Grove, IL, USA) at +4 °C for 24 h. Then, the material was dehydrated, defatted, and clarified in a Leica ASP200 apparatus (Leica Biosystems Inc., Buffalo Grove, IL, USA) using ethanol-xylene wiring according to the following scheme: deionized water—2 h; 70% ethanol—12 h; ethanol 96% sequentially—1 h, 30 min, 2 portions 15 min each; a mixture of ethanol and xylene 1:1—20 min; xylene—2 portions for 30 min each; paraffin—3 times for 1 h each. Then, the material was embedded in paraffin blocks using a Leica EG1160 apparatus (Leica Biosystems Inc., Buffalo Grove, IL, USA). […] The results were evaluated using a ZEISS LSM 880 laser scanning microscope with an Airyscan module (Carl Zeiss Vision, Jena, Germany). […] A 10 × 10 grid was imposed on images containing only brain tissue; then, in 10 grid cells located obliquely from top left to right bottom corner, we selected plaques using the ‘magic wand’ tool, so the average plaque area and luminosity were calculated. Three images were analyzed for each animal in each group; then, the average of three animals was calculated. […]

SMILES	% of Activity, Antiradical Activity [1] [%]	Effect on β-amyloid 1–42 aggregation [2]	Novel object preference (episodic memory) [3]	Reduction in plaque load (Congo red-positive amyloid) [4]
O=C(/C=C/c1ccc(C(=O)NO)cc1)NC1C2CC3CC(C2)CC1C3 (centres unmarked) [compound 25, 4-((E)-3-((-Adamantan-2-yl)amino)-3-Oxoprop-1-en-1-yl)-N-Hydroxybenzamide]	43.34 ± 1.42	noticeable fibrillation inhibition	began to show memory impairment when presented with a new object	No changes in β-amyloid plaque level
O=C(CCCCCCC(=O)NC1C2CC3CC(C2)CC1C3)NO (centres unmarked) [compound 15, N^1-(Adamant-2-yl)-N^8-Hydroxyoctanediamide]	19.70 ± 1.34	noticeable fibrillation inhibition	significantly showed a strong preference and spent more time studying a new object	45%
